ChEMBL document CHEMBL1123119, “Analogues of platelet activating factor (PAF). 2. Some modifications of the glycerine backbone” (J Med Chem, 1985)

Experiments:
Assay type in all cases: functional
[1] = species on record: Rattus norvegicus; assay: Hypotensive activity of compound was determined in hypertensive rats, as dose required to decrease the mean arterial blood pressure 50 mmHg was determined
[2] = species on record: Oryctolagus cuniculus; assay: Maximum platelet aggregation units at 1.9*10e-4 molar concentration was determined.
[3] = species on record: Oryctolagus cuniculus; assay: Effective concentration required to produce 50% of the maximum platelet aggregation using rabbit platelet-rich plasma was determined.
[4] = Ratio of MABP to that of platelet EC50 of the compound.
[5] = species on record: Oryctolagus cuniculus; assay: Maximum platelet aggregation units at 5*10e-6 molar concentration was determined.
[6] = species on record: Oryctolagus cuniculus; assay: Maximum platelet aggregation units at 5*10e-4 molar concentration was determined.
[7] = species on record: Oryctolagus cuniculus; assay: Maximum platelet aggregation units at 5*10e-5 molar concentration was determined.
[8] = species on record: Oryctolagus cuniculus; assay: Maximum platelet aggregation units at 1.3*10e-5 molar concentration was determined.

Row | SMILES | Dose [1] | Max aggregation response [2] | EC50 [3] | Ratio [4] | Max aggregation response [5] | Max aggregation response [6] | Max aggregation response [7] | Max aggregation response [8]
1 | CCCCCCCCCCCCCCCCOCCC(COP(=O)([O-])OCC[N+](C)(C)C)OC(C)=O (centres undefined) | 0.0243 mg/kg | 50 | 1500 nM | 0.16 |  |  |  | 
2 | CCCCCCCCCCCCCCCCOCC(OC(C)=O)C(C)OP(=O)([O-])OCC[N+](C)(C)C (centres undefined) | 0.0634 mg/kg | 70 | 3200 nM | 0.2 |  |  |  | 
3 | CCCCCCCCCCCCCCCCOCC(CCOP(=O)([O-])OCC[N+](C)(C)C)OC(C)=O (centres undefined) | 0.0475 mg/kg |  | 1400 nM | 0.34 | 65 |  |  | 
4 | CCCCCCCCCCCCCCCCOC(C)C(COP(=O)([O-])OCC[N+](C)(C)C)OC(C)=O (centres undefined) | 0.00712 mg/kg |  | 510 nM | 0.14 |  | 65 |  | 
5 | CCCCCCCCCCCCCCCCOC(C)(C)C(COP(=O)([O-])OCC[N+](C)(C)C)OC(C)=O (centres undefined) | 0.8757 mg/kg |  | 11000 nM | 0.8 |  |  | 64 | 
6 | CCCCCCCCCCCCCCCCOCC(COP(=O)([O-])OCC[N+](C)(C)C)OC(C)=O (centres undefined) [PLATELET ACTIVATING FACTOR] | 0.00125 mg/kg |  | 19.4 nM | 0.65 |  |  |  | 75
